Here are results for 18 compounds from patent publication US20220153732A1, “PROTEIN SECRETION INHIBITORS” (KEZAR LIFE SCIENCES, priority 2019, published 2022).

Common to all, as to format: cell-based
In test [1] the test system is PD1-ss+10aa/Gaussia Luciferase. The test can be described thus: Dox-Induced PD1-ss-Gluc Assay. The gist of the method:
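Compounds, diluted in DMSO/media with doxycycline, were added to cells plated a day earlier and kept at 37° C under 5% CO2. The cells stably express a Gaussia luciferase construct fused to PD1-ss+10aa, induced via the T-REx system. Unassigned stereochemistry means mixture data.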

Test [2] deals with TNFα-FL/Gaussia Luciferase. The test can be described thus: Dox Induced TNFα-FL-Gluc Assay. The essentials:
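Compounds were added in doxycycline-containing DMSO/media to cells plated the previous day and incubated at 37° C under 5% CO2. These cells stably express a TNFα-FL/Gaussia luciferase cDNA whose expression is under T-REx (Dox-inducible) control, selected with Hygromycin and Blasticidin.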

For test [3], the system named is HER3-ss+4aa/Gaussia Luciferase. The test can be described thus: Dox-Induced Her3-ss-Gluc Assay. The gist of the method: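 Compounds, diluted in DMSO/media containing doxycycline, were incubated at 37° C., 5% CO2 with cells seeded one day earlier. The cells stably express HER3-ss+4aa/Gaussia luciferase under T-REx control. Where no stereochemistry is shown, data refer to the mixture of stereoisomers.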

For test [4], the system named is IL-2-FL/Gaussia Luciferase. As to the kind of experiment: Dox Induced IL2-FL-Gluc Assay. The gist of the method: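 Compounds were added together with doxycycline in DMSO/media and incubated at 37° C., 5% CO2. The cells were a stably selected line carrying IL-2-FL/Gaussia luciferase under T-REx inducible control. Structures drawn without stereochemistry were tested as stereoisomer mixtures.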

For test [5], the system named is human multiple myeloma cell line NCI-H929. As to the kind of experiment: H929 Cell Viability Assay. The settings on record: 48 hr, NCI-H929 cells, Celltiter-Glo, read-out: 48 hr H929 Viability Celltiter-Glo: Mean EC50. The protocol: Plates were incubated at 37° C., 5% CO2 for 48 hours. After 48 hours, Celltiter-Glo® (Promega) was added to each well and luciferase signal was quantified using Tecan Infinite M1000 Pro for cell viability determination.
For chemical structures that include one or more stereoisomers, but are illustrated without indicating stereochemistry, the assay data refers to a mixture of stereoisomers.

Test [6] relates to human multiple myeloma cell line U266B1. As to the kind of experiment: U266 Cell Viability Assay. The settings on record: U-266, 48 hr, U266B1 cells, Celltiter-Glo, read-out: 48 hr U266 Viability Celltiter-Glo: Mean EC50. The essentials:
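Viability measured by CellTiter-Glo luciferase signal after 48 h compound exposure (37 °C, 5% CO2) of U266B1 cells in 384-well format. Where stereochemistry is not shown, data refer to the stereoisomer mixture.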
For orientation: In ATP-based viability assays light output follows the ATP content of the culture.

Where [7] appears, read: 24 hr doxycycline induction, 293FRT/TO cells, Gaussia luciferase signal; read-out: 24 hr Dox Inducible PD1ssGluc 293FRT/TO: Mean IC50.
Setting [8] is: 24 hr doxycycline induction, 293FRT/TO cells, Gaussia luciferase signal; read-out: 24 hr Dox Inducible TNFaFLGluc 293FRT/TO: Mean IC50.
Where [9] appears, read: 24 hr doxycycline induction, 293FRT/TO cells, Gaussia luciferase signal; read-out: 24 hr Dox Inducible Her3(ss + 4)Gluc 293FRT/TO: Mean IC50.
Setting [10] is: 24 hr doxycycline induction, 293FRT/TO cells, Gaussia luciferase signal; read-out: 24 hr Dox Inducible IL2FLGIuc 293FRT/TO: Mean IC50.
The mark [11] stands for this setting: 24 hr, doxycycline-induced, 293FRT/TO cells; read-out: 24 hr Dox Inducible PD1ssGluc 293FRT/TO: Mean IC50.
[12] abbreviates: 24 hr, doxycycline-induced, 293FRT/TO cells; read-out: 24 hr Dox Inducible TNFaFLGluc 293FRT/TO: Mean IC50.
The mark [13] stands for this setting: 24 hr, doxycycline-induced, 293FRT/TO cells; read-out: 24 hr Dox Inducible Her3(ss + 4)Gluc 293FRT/TO: Mean IC50.
Setting [14] is: 24 hr, doxycycline-induced, 293FRT/TO cells; read-out: 24 hr Dox Inducible IL2FLGIuc 293FRT/TO: Mean IC50.

Like-named read-outs stand apart in the source and are kept apart here. Where only a bound is given, the exact number is not on record here.

The EC50 is the concentration that produces a half-maximal response. For `CC(C)OC(C)(C)c1csc(NC(=O)c2ccn(Cc3ccncc3)c2)n1` [Compound A122, N-(4-(2-isopropoxypropan-2-yl)thiazol-2-yl)-1-(pyridin-4-ylmethyl)-1H-pyrrole-3-carboxamide], the IC50 in test [1] (setting [7]), in test [2] (setting [8]), in test [3] (setting [9]) and in test [4] (setting [10]) was above 25 µM in each case. Moreover, the concentration giving a half-maximal response (EC50) in test [5] and in test [6] was above 25 µM in each case.
Regarding `COc1cccc(CCc2csc(NC(=O)c3cccn3Cc3ccncc3)n2)c1` [Compound A176], the IC50 in test [1] (setting [7]) worked out at 0.272 µM; in test [2] (setting [8]) it was 2.87 µM; in test [3] (setting [9]), 0.643 µM; in test [4] (setting [10]), 1.2 µM. In addition, the EC50 in test [5] is 20.8 µM; in test [6], above 25 µM.
With `O=C(Nc1nc([C@H]2CCC(=O)N2c2ccccc2)cs1)c1cccn1Cc1ccncc1` [Compound A319], the IC50 in test [1] (setting [11]) turned out to be 1.31 µM; in test [2] (setting [12]), 16 µM; in test [3] (setting [13]) it was 2.72 µM; in test [4] (setting [14]), 1.84 µM. Also, the EC50 in test [5] and in test [6] was above 25 µM in each case.
With `O=C(Nc1nc([C@H]2CCN(Cc3ccccc3)C2)cs1)c1cccn1Cc1ccncc1` [Compound A279], the IC50 was 1.14 µM in test [1] (setting [7]), above 25 µM in test [2] (setting [8]), 4.2 µM in test [3] (setting [9]) and 4.97 µM in test [4] (setting [10]). Also, the 50% effective concentration (EC50) in test [5] and in test [6] was above 25 µM throughout.
On to `CC(C)OC(C)(C)c1csc(NC(=O)c2cccn2CCCc2ccncc2F)n1` [Compound A243, 1-(3-(3-fluoropyridin-4-yl)propyl)-N-(4-(2-isopropoxypropan-2-yl)thiazol-2-yl)-1H-pyrrole-2-carboxamide], for which the IC50 in test [1] (setting [7]) came out at 0.178 µM; in test [2] (setting [8]), 2.36 µM; in test [3] (setting [9]), 0.199 µM; in test [4] (setting [10]), 0.136 µM. Also, the EC50 in test [5] was 14.8 µM; in test [6], above 25 µM.
As for `O=C(Nc1nc(/C=C/c2ccccn2)cs1)c1cccn1Cc1ccncc1` [Compound A164], the IC50 in test [1] (setting [7]) amounted to 0.098 µM; in test [2] (setting [8]), 23.7 µM; in test [3] (setting [9]), 8.4 µM; in test [4] (setting [10]), 6.77 µM. In addition, the concentration giving a half-maximal response (EC50) is 17.7 µM in test [5] and above 25 µM in test [6].
On to `O=C(Nc1nc([C@H]2CCCN2c2ccccn2)cs1)c1cccn1Cc1ccncc1` [Compound A317], for which the IC50 is 0.025 µM in test [1] (setting [11]), 0.427 µM in test [2] (setting [12]), 0.064 µM in test [3] (setting [13]) and 0.057 µM in test [4] (setting [14]). Besides, the results for the EC50 in test [5] and in test [6] were 2.54 µM and above 25 µM, respectively.
As for `CC(=O)Nc1ccc(Cn2cccc2C(=O)Nc2nc(C(C)(C)OC(C)C)cs2)cc1` [Compound A114, 1-(4-acetamidobenzyl)-N-(4-(2-isopropoxypropan-2-yl)thiazol-2-yl)-1H-pyrrole-2-carboxamide], the IC50 in test [1] (setting [7]), in test [2] (setting [8]), in test [3] (setting [9]) and in test [4] (setting [10]) was above 25 µM in each case. Also, the half-maximal effective concentration (EC50) in test [5] and in test [6] was above 25 µM throughout.
In the case of `CCC(C)c1csc(NC(=O)c2cccn2Cc2ccncc2)n1` (stereo not drawn) [Compound A23], the IC50 in test [1] (setting [7]) amounted to 0.29 µM; in test [2] (setting [8]) it was 5.47 µM; in test [3] (setting [9]), 0.447 µM; in test [4] (setting [10]) it was 0.429 µM. The EC50 in test [5] and in test [6] was above 25 µM in each case.
With `CC(C)(C)[Si](O[C@@H]1C[C@H](c2csc(NC(=O)c3cccn3Cc3ccncc3)n2)N(c2ccccc2)C1)(c1ccccc1)c1ccccc1` [Compound A322], the IC50 in test [1] (read-out: 24 hr Dox Inducible PD1ssGluc 293FRT/TO: Mean IC50; 24 hr, doxycycline-induced, 293FRT/TO cells) was determined as 0.003 µM; in test [2] (read-out: 24 hr Dox Inducible TNFaFLGluc 293FRT/TO: Mean IC50; 24 hr, doxycycline-induced, 293FRT/TO cells), 0.014 µM; in test [3] (read-out: 24 hr Dox Inducible Her3(ss + 4)Gluc 293FRT/TO: Mean IC50; 24 hr, doxycycline-induced, 293FRT/TO cells), 0.009 µM; in test [4] (read-out: 24 hr Dox Inducible IL2FLGIuc 293FRT/TO: Mean IC50; 24 hr, doxycycline-induced, 293FRT/TO cells), 0.009 µM. Besides, the 50% effective concentration (EC50) was 0.315 µM in test [5] and above 25 µM in test [6].
As for `O=C(Nc1nc(/C=C/Cc2ccccc2)cs1)c1cccn1Cc1ccncc1` [Compound A218, N-(4-(3-phenylprop-1-en-1-yl)thiazol-2-yl)-1-(pyridin-4-ylmethyl)-1H-pyrrole-2-carboxamide], the IC50 in test [1] (setting [7]) was found to be 0.131 µM; in test [2] (setting [8]), 3.03 µM; in test [3] (setting [9]) it was 0.315 µM; in test [4] (setting [10]), 0.779 µM. The EC50 in test [5] was 17.1 µM; in test [6] it was above 25 µM.
Take `CC(C)OC(C)(C)c1csc(NC(=O)c2cccn2CCCCc2ccncc2)n1` [Compound A44, N-(4-(2-isopropoxypropan-2-yl)thiazol-2-yl)-1-(4-(pyridin-4-yl)butyl)-1H-pyrrole-2-carboxamide]: the IC50 came to 0.963 µM in test [1] (setting [7]), 13.3 µM in test [2] (setting [8]), 1.48 µM in test [3] (setting [9]) and 0.837 µM in test [4] (setting [10]). In addition, the figures for the concentration for a half-maximal effect (EC50) in test [5] and in test [6] were above 24.8 µM and above 25 µM, respectively.
Take `O=C(Nc1nc(C2=CCC(c3ccccc3)CC2)cs1)c1cccn1Cc1ccncc1` (stereo not drawn) [Compound A249, 1-(pyridin-4-ylmethyl)-N-(4-(1,2,3,6-tetrahydro-[1,1-biphenyl]-4-yl)thiazol-2-yl)-1H-pyrrole-2-carboxamide]: the IC50 in test [1] (setting [7]) is 0.163 µM; in test [2] (setting [8]), 1.41 µM; in test [3] (setting [9]), 0.545 µM; in test [4] (setting [10]) it was 0.881 µM. The results for the concentration giving a half-maximal response (EC50) in test [5] and in test [6] were 19.9 µM and 14.4 µM, respectively.
Turning to `CC(C)OC(C)(C)c1csc(NC(=O)c2cccn2Cc2cccnc2)n1` [Compound A87, N-(4-(2-isopropoxypropan-2-yl)thiazol-2-yl)-1-(pyridin-3-ylmethyl)-1H-pyrrole-2-carboxamide], the IC50 in test [1] (setting [7]) is 8.13 µM; in test [2] (setting [8]), above 25 µM; in test [3] (setting [9]), above 25 µM; in test [4] (setting [10]), 8.59 µM. In addition, the 50% effective concentration (EC50) in test [5] and in test [6] was above 25 µM in each case.
In the case of `CC(C)OC(C)(C)c1csc(NC(=O)c2cccn2CC2CCN(C)CC2)n1` [Compound A129, N-(4-(2-isopropoxypropan-2-yl)thiazol-2-yl)-1-((1-methylpiperidin-4-yl)methyl)-1H-pyrrole-2-carboxamide], the IC50 in test [1] (setting [7]), in test [2] (setting [8]), in test [3] (setting [9]) and in test [4] (setting [10]) was above 25 µM in each case. Moreover, the 50% effective concentration (EC50) in test [5] and in test [6] was above 25 µM throughout.
In the case of `O=C(Nc1nc(C2(OCc3ccccc3)CC2)cs1)c1cccn1Cc1ccncc1` [Compound A263, N-(4-(1-(benzyloxy)cyclopropyl)thiazol-2-yl)-1-(pyridin-4-ylmethyl)-1H-pyrrole-2-carboxamide], the IC50 in test [1] (setting [7]) turned out to be 0.381 µM; in test [2] (setting [8]), 5.22 µM; in test [3] (setting [9]), 0.958 µM; in test [4] (setting [10]), 1.04 µM. In addition, the EC50 in test [5] is 21.5 µM; in test [6] it was above 25 µM.
Consider `O=C(Nc1nc(C2CCc3ccccc3O2)cs1)c1cccn1CCCc1ccncc1` (stereo not drawn) [Compound A286], for which the IC50 in test [1] (setting [7]) stood at 1.28 µM; in test [2] (setting [8]), 6.17 µM; in test [3] (setting [9]), 2.42 µM; in test [4] (setting [10]) it was 3.93 µM. For the same compound, the EC50 is 9.57 µM in test [5] and 15.7 µM in test [6].
`CC(C)OC(C)(C)c1csc(NC(=O)c2cccn2Cc2cc[n+]([O-])cc2)n1` [Compound A85]: the IC50 in test [1] (setting [7]) was 7.54 µM; in test [2] (setting [8]) it was above 25 µM; in test [3] (setting [9]), above 25 µM; in test [4] (setting [10]), above 25 µM. Also, the half-maximal effective concentration (EC50) in test [5] and in test [6] was above 25 µM throughout.
